Experimental data published in patent publication US4576945A, “Hexaalkylmelamine-amino-oxy compounds” (priority 1984, dated 1986).
Converted amounts (≈) assume the structure as drawn. Read-outs that look alike come from different tables or passages of the source.

Columns and labels:
A-549 lung carcinoma = test: Inhibition of colony formation by human tumor cell line A-549 (lung carcinoma), long-term exposure; type: cell-based; settings: 9 days
Procedure: (§1) Cytotoxic activity of O-HMM against in vitro human tumor cells was measured as inhibition of colony formation and the results expressed as a ratio of the number of colonies in test dishes to number of control dishes, times 100 (Table 4).
(§2) Inhibition of colony formation by human tumor
(§3) ^a Percent survival as measured by the number of colonies in test

[1] = Rearrangement of O-HMM to HDT (chemical stability); type: physicochemical; settings: for degraded at 4 h / degraded at 24 h / degraded at 26 h / degraded at 20 h: read-out: HDT (formed by rearrangement, determined by NMR); for remaining at 4 h / remaining at 24 h / remaining at 26 h / remaining at 20 h: read-out: HMM--NO (remaining, determined by NMR); for degraded at 24 h / remaining at 24 h: h2o; for degraded at 20 h / remaining at 20 h: 135° C. sealed tube
Text: Solvent Temp. Time HMM--NO HDT
^a Yields determined by NMR
^b Sealed tube reaction. Solutions degassed with argon and then seale
^d 0.1 equiv. mchlorobenzoic acid
^e 0.1 equiv. pnitrobenzoic acid
^f 0.05 M HOAc/NaOAc pH 5

A-101D melanoma = test: Inhibition of colony formation by human tumor cell line A-101D (melanoma), long-term exposure; type: cell-based; settings: 9 days
Procedure: as §1, §2, §3

rats = test: Acute toxic effects after intraperitoneal administration in rats; type: in vivo, Male Harlen-Sprague-Dawley rats; settings: rat; 20 mg/kg intraperitoneal
Procedure: Male Harlen-Sprague-Dawley rats, 200-300 g were given 20 mg/kg of O-HMM by intraperitoneal injection (control rats received saline vehicle only) and their urine collected for two consecutive 24 hr. periods.

A-498 renal carcinoma = test: Inhibition of colony formation by human tumor cell line A-498 (renal carcinoma), long-term exposure; type: cell-based; settings: 9 days
Procedure: as §1, §2, §3

A-204 rhabdomysarcoma = test: Inhibition of colony formation by human tumor cell line A-204 (rhabdomysarcoma), long-term exposure; type: cell-based; settings: 9 days
Procedure: as §1, §2, §3

[2] = Solubility in lipid and aqueous media; type: physicochemical
[3] = test system: A-549 lung carcinoma, A-101D melanoma, A-498 renal carcinoma and A-204 rhabdomysarcoma; test: Comparison of O-HMM with HMM in the human tumor colony formation test systems; type: cell-based; settings: vs HMM; all four cell lines
Procedure: as §1

male BDF1 mice = test: Toxicity study (LD50 study) in mice; type: in vivo; settings: IP
Procedure: These effects diminished over a period of about 3-5 hours until the animal appeared normal and resumed activity.

[4] = h2o/h+ (0.05 m hoac/naoac), pH 5, H2O/H+ (0.05 M HOAc/NaOAc pH 5), 25° C.
[5] = h2o/h+ (0.05 m hoac/naoac), pH 5, H2O/H+ (0.05 M HOAc/NaOAc pH 5), 50° C.
[6] = hccl3/h+ (m-chlorobenzoic acid), HCCl3/H+ (0.1 equiv. m-chlorobenzoic acid), 25° C.
[7] = hccl3/h+ (m-chlorobenzoic acid), HCCl3/H+ (0.1 equiv. m-chlorobenzoic acid), 50° C.
[8] = hccl3/h+ (m-chlorobenzoic acid), HCCl3/H+ (0.1 equiv. m-chlorobenzoic acid)
[9] = hccl3/h+ (p-nitrobenzoic acid), HCCl3/H+ (0.1 equiv. p-nitrobenzoic acid), 50° C.

CN(C)Oc1nc(N(C)C)nc(N(C)C)n1 [O-HMM, 2,4-bis(dimethylamino)-6-[(dimethylamino)oxy]-1,3,5-triazine]
inhibition of colony formation (A-549 lung carcinoma; 200 μg/ml): Complete inhibition
viability at 10 µg/mL (A-549 lung carcinoma; Homo sapiens, A549, 216 h, 10 ug/ml, read-out: Percent survival (number of colonies in test dishes to colonies in control dishes times 100)): 91 ± 6%
viability at 20 µg/mL (A-549 lung carcinoma; Homo sapiens, A549, 216 h, 20 ug/ml, read-out: Percent survival (number of colonies in test dishes to colonies in control dishes times 100)): 94 ± 4%
viability at 40 µg/mL (A-549 lung carcinoma; Homo sapiens, A549, 216 h, 40 ug/ml, read-out: Percent survival (number of colonies in test dishes to colonies in control dishes times 100)): 69 ± 11%
viability at 60 µg/mL (A-549 lung carcinoma; Homo sapiens, A549, 216 h, 60 ug/ml, read-out: Percent survival (number of colonies in test dishes to colonies in control dishes times 100)): 9 ± 14%
viability at 80 µg/mL (A-549 lung carcinoma; Homo sapiens, A549, 216 h, 80 ug/ml, read-out: Percent survival (number of colonies in test dishes to colonies in control dishes times 100)): 0%
viability at 100 µg/mL (A-549 lung carcinoma; Homo sapiens, A549, 216 h, 100 ug/ml, read-out: Percent survival (number of colonies in test dishes to colonies in control dishes times 100)): 0%
viability at 120 µg/mL (A-549 lung carcinoma; Homo sapiens, A549, 216 h, 120 ug/ml, read-out: Percent survival (number of colonies in test dishes to colonies in control dishes times 100)): 0%
viability at 200 µg/mL (A-549 lung carcinoma; Homo sapiens, A549, 216 h, 200 ug/ml, read-out: Percent survival (number of colonies in test dishes to colonies in control dishes times 100)): 0%
degraded at 4 h ([1]; h2o/h+ (0.01 m hcl), 25° C.): 100%
remaining at 4 h ([1]; h2o/h+ (0.01 m hcl), 25° C.): 0%
degraded at 4 h [1, 4]: 79%
remaining at 4 h [1, 4]: 21%
degraded at 4 h [1, 5]: 100%
remaining at 4 h [1, 5]: 0%
degraded at 24 h ([1]; 25° C.): 0%
remaining at 24 h ([1]; 25° C.): 100%
degraded at 24 h ([1]; 50° C.): 9%
remaining at 24 h ([1]; 50° C.): 91%
degraded at 26 h ([1]; hccl3, HCCl3, 25° C.): 3%
remaining at 26 h ([1]; hccl3, HCCl3, 25° C.): 97%
degraded at 26 h ([1]; hccl3, HCCl3, 50° C.): 37%
remaining at 26 h ([1]; hccl3, HCCl3, 50° C.): 63%
degraded at 20 h ([1]; hccl3, HCCl3): 100%
remaining at 20 h ([1]; hccl3, HCCl3): 0%
degraded at 26 h [1, 6]: 66%
remaining at 26 h [1, 6]: 34%
degraded at 26 h [1, 7]: 97%
remaining at 26 h [1, 7]: 3%
degraded at 20 h [1, 8]: 100%
remaining at 20 h [1, 8]: 0%
degraded at 26 h [1, 9]: 100%
remaining at 26 h [1, 9]: 0%
degraded at 20 h ([1]; pentane): 100%
remaining at 20 h ([1]; pentane): 0%
inhibition of colony formation (A-101D melanoma; 200 μg/ml): Complete inhibition
viability at 10 µg/mL (A-101D melanoma; Homo sapiens, A101D, 216 h, 10 ug/ml, read-out: Percent survival (number of colonies in test dishes to colonies in control dishes times 100)): 95 ± 10%
viability at 20 µg/mL (A-101D melanoma; Homo sapiens, A101D, 216 h, 20 ug/ml, read-out: Percent survival (number of colonies in test dishes to colonies in control dishes times 100)): 82 ± 9%
viability at 40 µg/mL (A-101D melanoma; Homo sapiens, A101D, 216 h, 40 ug/ml, read-out: Percent survival (number of colonies in test dishes to colonies in control dishes times 100)): 50 ± 15%
viability at 60 µg/mL (A-101D melanoma; Homo sapiens, A101D, 216 h, 60 ug/ml, read-out: Percent survival (number of colonies in test dishes to colonies in control dishes times 100)): 17 ± 16%
viability at 80 µg/mL (A-101D melanoma; Homo sapiens, A101D, 216 h, 80 ug/ml, read-out: Percent survival (number of colonies in test dishes to colonies in control dishes times 100)): 1 ± 1%
viability at 100 µg/mL (A-101D melanoma; Homo sapiens, A101D, 216 h, 100 ug/ml, read-out: Percent survival (number of colonies in test dishes to colonies in control dishes times 100)): 0%
viability at 120 µg/mL (A-101D melanoma; Homo sapiens, A101D, 216 h, 120 ug/ml, read-out: Percent survival (number of colonies in test dishes to colonies in control dishes times 100)): 0%
viability at 200 µg/mL (A-101D melanoma; Homo sapiens, A101D, 216 h, 200 ug/ml, read-out: Percent survival (number of colonies in test dishes to colonies in control dishes times 100)): 0%
acute toxic effects (rats): No acute toxic effects were observed
inhibition of colony formation (A-498 renal carcinoma; 200 μg/ml): Complete inhibition
viability at 10 µg/mL (A-498 renal carcinoma; Homo sapiens, A498, 216 h, 10 ug/ml, read-out: Percent survival (number of colonies in test dishes to colonies in control dishes times 100)): 93 ± 3%
viability at 20 µg/mL (A-498 renal carcinoma; Homo sapiens, A498, 216 h, 20 ug/ml, read-out: Percent survival (number of colonies in test dishes to colonies in control dishes times 100)): 83 ± 7%
viability at 40 µg/mL (A-498 renal carcinoma; Homo sapiens, A498, 216 h, 40 ug/ml, read-out: Percent survival (number of colonies in test dishes to colonies in control dishes times 100)): 67 ± 14%
viability at 60 µg/mL (A-498 renal carcinoma; Homo sapiens, A498, 216 h, 60 ug/ml, read-out: Percent survival (number of colonies in test dishes to colonies in control dishes times 100)): 44 ± 23%
viability at 80 µg/mL (A-498 renal carcinoma; Homo sapiens, A498, 216 h, 80 ug/ml, read-out: Percent survival (number of colonies in test dishes to colonies in control dishes times 100)): 24 ± 18%
viability at 100 µg/mL (A-498 renal carcinoma; Homo sapiens, A498, 216 h, 100 ug/ml, read-out: Percent survival (number of colonies in test dishes to colonies in control dishes times 100)): 14 ± 9%
viability at 120 µg/mL (A-498 renal carcinoma; Homo sapiens, A498, 216 h, 120 ug/ml, read-out: Percent survival (number of colonies in test dishes to colonies in control dishes times 100)): 5 ± 6%
viability at 200 µg/mL (A-498 renal carcinoma; Homo sapiens, A498, 216 h, 200 ug/ml, read-out: Percent survival (number of colonies in test dishes to colonies in control dishes times 100)): 0%
inhibition of colony formation (A-204 rhabdomysarcoma; 200 μg/ml): Complete inhibition
viability at 10 µg/mL (A-204 rhabdomysarcoma; Homo sapiens, A204, 216 h, 10 ug/ml, read-out: Percent survival (number of colonies in test dishes to colonies in control dishes times 100)): 99 ± 26%
viability at 20 µg/mL (A-204 rhabdomysarcoma; Homo sapiens, A204, 216 h, 20 ug/ml, read-out: Percent survival (number of colonies in test dishes to colonies in control dishes times 100)): 87 ± 13%
viability at 40 µg/mL (A-204 rhabdomysarcoma; Homo sapiens, A204, 216 h, 40 ug/ml, read-out: Percent survival (number of colonies in test dishes to colonies in control dishes times 100)): 76 ± 17%
viability at 60 µg/mL (A-204 rhabdomysarcoma; Homo sapiens, A204, 216 h, 60 ug/ml, read-out: Percent survival (number of colonies in test dishes to colonies in control dishes times 100)): 48 ± 21%
viability at 80 µg/mL (A-204 rhabdomysarcoma; Homo sapiens, A204, 216 h, 80 ug/ml, read-out: Percent survival (number of colonies in test dishes to colonies in control dishes times 100)): 20 ± 17%
viability at 100 µg/mL (A-204 rhabdomysarcoma; Homo sapiens, A204, 216 h, 100 ug/ml, read-out: Percent survival (number of colonies in test dishes to colonies in control dishes times 100)): 4 ± 4%
viability at 120 µg/mL (A-204 rhabdomysarcoma; Homo sapiens, A204, 216 h, 120 ug/ml, read-out: Percent survival (number of colonies in test dishes to colonies in control dishes times 100)): 1 ± 2%
viability at 200 µg/mL (A-204 rhabdomysarcoma; Homo sapiens, A204, 216 h, 200 ug/ml, read-out: Percent survival (number of colonies in test dishes to colonies in control dishes times 100)): 0%
solubility ([2]; pentane, organic solvent or mixture, read-out: solubility in lipid medium (pentane)): 29 mg/mL (≈ 128 mM)
solubility ([2]; water, read-out: solubility in aqueous medium (water)): 19 mg/mL (≈ 84 mM)
activity compared with HMM in the human tumor colony formation test systems [3]: consistently greater activity than HMM
onset of changes in the mouse's behavior after injection (male BDF1 mice): < 1 min
recovery of the fourth mouse (male BDF1 mice; 1000 mg/kg): recovering completely
time of recovery (dose dependence) (male BDF1 mice; mouse): dose-dependent time of recovery
time until effects diminished and animal appeared normal (male BDF1 mice; mouse): 3 to 5 h
time to death (male BDF1 mice; mouse, 1000 mg/kg): ≤ 3 min
deaths (male BDF1 mice; mouse, 1000 mg/kg, 4 mice): 3 of the 4
long-term effects (weight loss, hair loss, death rate vs control animals) (male BDF1 mice; mouse, 60- and 120-day observation): no long-term effects
recovery of the remaining mice in the other groups (male BDF1 mice; mouse, 500, 250, 100, 50 and 25 mg/kg): recovered completely in a few hours
toxic phenomenon (flaccid paralysis) (male BDF1 mice; mouse, 1000-25 mg/kg): dose dependent toxic phenomenon showing a decreasing degree of a flaccid paralysis with decreasing dose
absorption (male BDF1 mice; mouse, inferred from rapid onset of toxic effect): very rapid absorption
